These results are taken from publication PMC5896373 (Molecular Pharmacology, 2018).

A value given as a limit tells only on which side of the number the result lay.

Test [1] concerns the target T1, P2X7R point mutant H85P (Homo sapiens, UniProt Q99572, H85P/I21V/M24R/N16P/N25R/Q22R/R20V/S23N/T19I/Y26L).
T1 construct: expressed in transfected cells; host or cells: Xenopus laevis oocytes (cRNA injection)
In words: Two-electrode voltage clamp of ATP-evoked currents in Xenopus oocytes. The class given is cell-based. The conditions noted are these: EC90 ATP, mean ± S.E.M.
Procedure: (§1) Additional point mutants were made using the QuikChange mutagenesis kit (Stratagene California, La Jolla, CA). The production of the correct mutations and absence of coding errors was determined by DNA sequencing (Automated ABI Sequencing Service, University of Leicester, UK). cRNA was generated for the mutants and 50 nl (50 ng) was injected into manually defoliculated stage V Xenopus laevis oocytes using an Inject+Matic microinjector (J.A. Gabay, Inject+Matic, Geneva, Switzerland). Injected oocytes were stored at 16°C in ND96 buffer [in millimolar concentrations, NaCl 96, KCl 2, CaCl2 1.8, MgCl2 1, sodium pyruvate 5, and HEPES 5 (pH 7.6) supplemented with 50 μg/ml gentamycin and 50 μg/ml tetracycline]. Three to seven days postinjection two-electrode voltage clamp recordings were made from oocytes bathed in divalent-free ND96 buffer (in millimolar concentrations, NaCl 96, KCl 2, sodium pyruvate 5, HEPES 5, and 0.1 flufenamic acid, pH 7.6). Oocytes were voltage clamped at a holding potential of −60 mV with a GeneClamp500B amplifier (Molecular Devices).
(§2) Inhibition by the antagonists was expressed as the percentage of the peak current amplitude of an EC90 concentration of ATP recorded before the application of antagonist (ATP gave reproducible responses to ATP in the absence of antagonist). […]

The target of test [2] is T2, chimeric P2X7/1 receptor 210–217 (Homo sapiens, UniProt Q99572, G211E/I214K/I21V/INS213AAHM/L212V/M24R/N16P/N25R/P210E/Q22R/R20V/S23N/T19I/T217L/Y26L).
T2 construct: expressed in transfected cells; host or cells: Xenopus laevis oocytes (cRNA injection)
T2 sequence (Q99572 with tags, fused parts or gaps N16P/T19I/R20V/I21V/Q22R/S23N/M24R/N25R/Y26L/P210E/G211E/L212V/INS213AAHM/I214K/T217L): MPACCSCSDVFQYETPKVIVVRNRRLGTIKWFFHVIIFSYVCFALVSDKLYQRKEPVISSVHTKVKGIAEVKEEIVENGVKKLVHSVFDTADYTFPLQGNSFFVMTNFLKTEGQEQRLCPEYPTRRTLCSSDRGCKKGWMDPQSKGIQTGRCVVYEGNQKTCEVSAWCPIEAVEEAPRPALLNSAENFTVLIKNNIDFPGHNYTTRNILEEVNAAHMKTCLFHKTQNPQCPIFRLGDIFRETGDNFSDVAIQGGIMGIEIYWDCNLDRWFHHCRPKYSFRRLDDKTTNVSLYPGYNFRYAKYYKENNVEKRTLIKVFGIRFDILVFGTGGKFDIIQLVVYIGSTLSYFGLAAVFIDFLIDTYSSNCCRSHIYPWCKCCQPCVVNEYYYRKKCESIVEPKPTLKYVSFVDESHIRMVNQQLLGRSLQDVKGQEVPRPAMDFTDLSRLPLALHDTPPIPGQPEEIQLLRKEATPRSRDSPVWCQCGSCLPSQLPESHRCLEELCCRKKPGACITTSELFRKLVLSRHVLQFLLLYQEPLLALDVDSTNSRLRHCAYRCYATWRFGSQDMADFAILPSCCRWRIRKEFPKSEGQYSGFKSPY
The description is as above. Format: cell-based.
Procedure: (§3) The production of the correct mutations and absence of coding errors was determined by DNA sequencing (Automated ABI Sequencing Service, University of Leicester, UK). cRNA was generated for the mutants and 50 nl (50 ng) was injected into manually defoliculated stage V Xenopus laevis oocytes using an Inject+Matic microinjector (J.A. Gabay, Inject+Matic, Geneva, Switzerland). Injected oocytes were stored at 16°C in ND96 buffer [in millimolar concentrations, NaCl 96, KCl 2, CaCl2 1.8, MgCl2 1, sodium pyruvate 5, and HEPES 5 (pH 7.6) supplemented with 50 μg/ml gentamycin and 50 μg/ml tetracycline]. Three to seven days postinjection two-electrode voltage clamp recordings were made from oocytes bathed in divalent-free ND96 buffer (in millimolar concentrations, NaCl 96, KCl 2, sodium pyruvate 5, HEPES 5, and 0.1 flufenamic acid, pH 7.6). Oocytes were voltage clamped at a holding potential of −60 mV with a GeneClamp500B amplifier (Molecular Devices).
(§4) Inhibition by the antagonists was expressed as the percentage of the peak current amplitude of an EC90 concentration of ATP recorded before the application of antagonist (ATP gave reproducible responses to ATP in the absence of antagonist). Inhibition curves were fitted with the Hill equation (variable slope) using GraphPad Prism 6 (GraphPad Software, San Diego, CA). […] Individual concentration-response curves were generated for individual experiments, and statistical analysis was carried out on the data generated. […] Data are shown as mean ± S.E.M. In all cases n ≥ 3 for all data points.

The target in test [3] is T3, chimeric P2X7/1 receptor 89–94 (Homo sapiens, UniProt Q99572, I21V/M24R/N16P/N25R/Q22R/R20V/S23N/T19I/T90V/T94V/Y26L).
T3 construct: expressed in transfected cells; host or cells: Xenopus laevis oocytes (cRNA injection)
T3 sequence (Q99572 1-595 N16P/T19I/R20V/I21V/Q22R/S23N/M24R/N25R/Y26L/T90V/T94V): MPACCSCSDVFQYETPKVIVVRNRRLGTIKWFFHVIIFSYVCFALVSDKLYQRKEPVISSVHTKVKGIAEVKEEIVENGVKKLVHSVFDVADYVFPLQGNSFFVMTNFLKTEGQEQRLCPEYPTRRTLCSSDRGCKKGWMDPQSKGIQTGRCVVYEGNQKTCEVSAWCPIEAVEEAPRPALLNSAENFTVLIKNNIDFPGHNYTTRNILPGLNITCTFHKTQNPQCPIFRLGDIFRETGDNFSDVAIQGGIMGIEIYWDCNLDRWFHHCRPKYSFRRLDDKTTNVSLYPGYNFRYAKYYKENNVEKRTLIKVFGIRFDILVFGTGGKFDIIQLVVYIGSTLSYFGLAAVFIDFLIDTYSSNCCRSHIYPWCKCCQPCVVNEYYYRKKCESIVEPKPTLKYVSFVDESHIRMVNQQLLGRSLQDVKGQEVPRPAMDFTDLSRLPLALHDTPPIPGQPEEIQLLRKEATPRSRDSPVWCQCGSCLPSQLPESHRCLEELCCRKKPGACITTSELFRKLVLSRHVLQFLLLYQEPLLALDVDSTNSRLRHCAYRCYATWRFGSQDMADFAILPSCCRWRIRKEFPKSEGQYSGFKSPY
The description is as above. Format: cell-based. The conditions noted are these: for IC50: inhibition of EC90 ATP response.
Procedure: as §3, §4

Test [4] has as its target T4, P2X7R point mutant F88A (Homo sapiens, UniProt Q99572, F88A/I21V/M24R/N16P/N25R/Q22R/R20V/S23N/T19I/Y26L).
T4 construct: expressed in transfected cells; host or cells: Xenopus laevis oocytes (cRNA injection)
The test is described as above. As to conditions: EC90 ATP, mean ± S.E.M. Format: cell-based.
Procedure: as §1, §2

Test [5] has as its target T5, P2X7R mutant Insert G99 (Homo sapiens, UniProt Q99572, I21V/INS99D/M24R/N16P/N25R/Q22R/R20V/S23N/T19I/Y26L).
T5 construct: expressed in transfected cells; host or cells: Xenopus laevis oocytes (cRNA injection)
T5 sequence (Q99572 with tags, fused parts or gaps N16P/T19I/R20V/I21V/Q22R/S23N/M24R/N25R/Y26L/INS99D): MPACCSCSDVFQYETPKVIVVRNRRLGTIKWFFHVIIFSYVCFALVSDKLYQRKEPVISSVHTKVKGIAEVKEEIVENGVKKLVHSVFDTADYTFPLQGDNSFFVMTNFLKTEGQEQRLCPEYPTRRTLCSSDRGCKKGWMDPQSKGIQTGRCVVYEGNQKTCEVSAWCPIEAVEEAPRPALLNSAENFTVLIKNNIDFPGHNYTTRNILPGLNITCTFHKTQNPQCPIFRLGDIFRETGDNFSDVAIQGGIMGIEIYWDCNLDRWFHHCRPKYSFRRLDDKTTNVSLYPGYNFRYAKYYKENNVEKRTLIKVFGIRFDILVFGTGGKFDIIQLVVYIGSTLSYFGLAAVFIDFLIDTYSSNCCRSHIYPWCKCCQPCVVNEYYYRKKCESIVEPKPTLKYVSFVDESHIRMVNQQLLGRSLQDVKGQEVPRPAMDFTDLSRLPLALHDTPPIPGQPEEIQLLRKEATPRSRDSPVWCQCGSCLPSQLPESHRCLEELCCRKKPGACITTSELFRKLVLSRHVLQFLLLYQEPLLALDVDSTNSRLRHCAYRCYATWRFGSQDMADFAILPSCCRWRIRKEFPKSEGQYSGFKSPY
Also noted: method as in Allsopp et al., 2017. As to conditions: aspartic acid inserted between G99 and N100; ref Allsopp et al., 2017; cited from earlier work.

T1 sequence (Q99572 whole entry N16P/T19I/R20V/I21V/Q22R/S23N/M24R/N25R/Y26L/H85P): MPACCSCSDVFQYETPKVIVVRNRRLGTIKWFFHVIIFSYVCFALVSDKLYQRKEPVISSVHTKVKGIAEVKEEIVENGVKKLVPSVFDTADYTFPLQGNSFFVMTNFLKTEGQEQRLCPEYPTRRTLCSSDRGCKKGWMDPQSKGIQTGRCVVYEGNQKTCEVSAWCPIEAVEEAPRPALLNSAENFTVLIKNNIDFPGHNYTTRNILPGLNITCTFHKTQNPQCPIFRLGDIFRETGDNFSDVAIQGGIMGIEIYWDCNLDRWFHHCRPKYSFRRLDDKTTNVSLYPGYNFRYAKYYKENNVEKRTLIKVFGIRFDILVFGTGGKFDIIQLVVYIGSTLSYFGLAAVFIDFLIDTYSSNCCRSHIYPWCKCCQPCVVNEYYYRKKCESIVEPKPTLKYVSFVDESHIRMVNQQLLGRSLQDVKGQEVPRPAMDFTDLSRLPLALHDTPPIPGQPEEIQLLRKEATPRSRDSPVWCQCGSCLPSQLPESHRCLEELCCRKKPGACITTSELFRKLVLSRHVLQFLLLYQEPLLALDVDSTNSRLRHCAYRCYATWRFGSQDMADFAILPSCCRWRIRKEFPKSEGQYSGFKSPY
T4 sequence (Q99572 whole entry N16P/T19I/R20V/I21V/Q22R/S23N/M24R/N25R/Y26L/F88A): as the sequence (Q99572 whole entry N16P/T19I/R20V/I21V/Q22R/S23N/M24R/N25R/Y26L/H85P) above, with P85H, F88A counted along it

What is called IC50 is the concentration that gives 50% inhibition. As usually defined, the inhibition is the change of the read-out against control, counted positive when it falls. For `Cl.Clc1cccc(-c2nnnn2Cc2cccnc2)c1Cl.O` [A438079, 3-(5-(2,3-dichlorophenyl)-1H-tetrazol-1-yl)methyl pyridine hydrochloride hydrate], the IC50 in test [1] is 1000 nM; in test [2], 251 nM; in test [3] (chimera 89–94), over 100000 nM; in test [4], over 100000 nM. The inhibition at 10 µM in test [3] (P2X7, read-out: inhibition of ATP responses) worked out at 15.7%.
With `COc1ccc(CC(=O)NC(N=C(NC#N)Nc2cccc3ncccc23)C(C)(C)C)cc1OC` (stereo not drawn) [A740003, N-[1-[[(cyanoamino)(5-quinolinylamino)methylene]amino]-2,2-dimethylpropyl]-3,4-dimethoxybenzeneacetamide], the IC50 in test [1] is 398 nM; in test [2] it was 79.4 nM; in test [3] (chimera 89–94) it was 251 nM; in test [4], 5010 nM. Also, the “effect on antagonist sensitivity relative to P2X7-2Nβ” value in test [2] (chimera 210–217) is listed as “unaffected”. The “fold decrease in antagonist sensitivity/affinity relative to P2X7-2Nβ” value in test [3] (chimera 89–94) was about 3 fold.
In the case of `Cl.Cl.O=C(CC12CC3CC(CC(C3)C1)C2)Nc1cccc2nc(NCCNCCO)ccc12` [AZ10606120, N-[2-[[2-[(2-hydroxyethyl)amino]ethyl]amino]-5-quinolinyl]-2-tricyclo[3.3.1.13,7]dec-1-ylacetamide dihydrochloride], in test [5], the “effect on antagonist binding” value is given as “little effect”.
